The results in this text go back to US10611750B2, “Tetrahydroquinoline compositions as bet bromodomain inhibitors” (FORMA Therapeutics, Inc., priority 2013, dated 2020).

“And” between values parts separate entries of the source, which are not always exact repeats. Identical values can stand only once.

Assay [1] concerns the target T1, BRD4 Bromodomain 1 (BRD4 BD1) (Homo sapiens, UniProt O60885).
T1 construct: 44-168 and BRD4 BD2
The experiment in a line: AlphaScreen binding assay, BRD4 BD1. Conditions: His-tagged BRD4 BD1 50 nM, biotinylated H4 (1-21) K5/8/12/16 tetra-acetylated peptide 50 nM, compounds listed under IC50 range headings. The gist of the method:
(§1)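 Compound dilution series were mixed with His-tagged BRD4 bromodomain and biotinylated tetra-acetylated H4 (1-21) peptide at pH 7.3 (BD1 and peptide at 50 nM, BD2 and peptide at 100 nM). Donor and acceptor beads were then added, and plates were equilibrated at least 1 h before reading. IC50 values were fitted with a four-parameter logistic model.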
A general note: Alpha assays give light when donor and acceptor beads are brought close together.

Assay [2] concerns the target T2, BRD4 Bromodomain 2 (BRD4 BD2) (Homo sapiens, UniProt O60885).
T2 construct: 333-460 were cloned, expressed, and purified to homogeneity
The experiment in a line: AlphaScreen binding assay, BRD4 BD2. Particulars: His-tagged BRD4 BD2 100 nM, biotinylated H4 (1-21) K5/8/12/16 tetra-acetylated peptide 100 nM, compounds listed under IC50 range headings. The essentials:
as §1

The test system of assay [3] is acute myelocytic leukemia (AML) cell line MV4-11. In words: Oncology cell growth assay (3-day proliferation, CellTiter-Glo). In kind it is cell-based. Conditions: Homo sapiens, MV4-11, 72 h, MV4-11 cells, 3000 cells/well, compounds listed under IC50 range headings, read-out: MV411 IC50 (gIC50, inhibition of proliferation). The essentials:
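MV4-11 AML cells (RPMI 1640, 10% FBS) plated at 3000 cells/well and exposed 72 h to compound at final 10 to 0.0045 μM (3-fold series). Viability read by CellTiter-Glo luminescence; gIC50 from four-parameter logistic fit between DMSO control and no-cell background.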
On the technique in general: Cellular ATP, detected with luciferase, serves as a proxy for viable cell number.

Turning to `C[C@H]1CCc2c(ccc(-c3cnn(C4CNC4)c3)c2Oc2ccc(F)cc2)N1C(=O)C1CC1` [I-170, (S)-(6-(1-(azetidin-3-yl)-1H-pyrazol-4-yl)-5-(4-fluorophenoxy)-2-methyl-3,4-dihydroquinolin-1 (2H)-yl)(cyclopropyl)methanone], the figures for the IC50 in assay [1], in assay [2] and in assay [3] were 100 to 1000 nM, below 50 nM and below 500 nM, respectively.
For `COC(=O)N1c2ccc(-c3cnn(C4CCNC4)c3)c(Oc3ccc(F)cc3)c2CC[C@@H]1C` (stereo partly drawn) [I-185, (2S)-methyl 5-(4-fluorophenoxy)-2-methyl-6-(1-(pyrrolidin-3-yl)-1H-pyrazol-4-yl)-3,4-dihydroquinoline-1(2H)-carboxylate], the figures for the IC50 in assay [1], in assay [2] and in assay [3] were 100 to 1000 nM, below 50 nM and below 500 nM, respectively.
For `COC(=O)N1c2ccc(-c3cnn(C4CCNCC4)c3)c(Oc3cccc(F)c3)c2CC[C@@H]1C` [I-188, Methyl (S)-5-(3-fluorophenoxy)-2-methyl-6-(1-(piperidin-4-yl)-1H-pyrazol-4-yl)-3,4-dihydroquinoline-1(2H)-carboxylate], the IC50 in assay [1] was 100 to 1000 nM; in assay [2], below 50 nM; in assay [3], below 500 nM.
Turning to `COC(=O)N1c2ccc(-c3cnn(C4CCNCC4)c3)c(Oc3cccc(Cl)c3)c2CC[C@@H]1C` [I-189, Methyl (S)-5-(3-chlorophenoxy)-2-methyl-6-(1-(piperidin-4-yl)-1H-pyrazol-4-yl)-3,4-dihydroquinoline-1(2H)-carboxylate], the IC50 was 100 to 1000 nM in assay [1], below 50 nM in assay [2] and below 500 nM in assay [3].
The matching figures for `CC(=O)N1c2ccc(-c3cnn(C4CCNCC4)c3)c(Oc3ccc(F)cc3)c2CC[C@@H]1C` [I-190, (S)-1-(5-(4-fluorophenoxy)-2-methyl-6-(1-(piperidin-4-yl)-1H-pyrazol-4-yl)-3,4-dihydroquinolin-1(2H)-yl)ethanone]: 100 to 1000 nM, 50 to 500 nM and below 500 nM.
On to `CC(=O)N1c2ccc(-c3cnn(C4CCNCC4)c3)c(Oc3ccc(Cl)cc3)c2CC[C@@H]1C` [I-191, (S)-1-(5-(4-chlorophenoxy)-2-methyl-6-(1-(piperidin-4-yl)-1H-pyrazol-4-yl)-3,4-dihydroquinolin-1(2H)-yl)ethanone], for which the IC50 was 100 to 1000 nM in assay [1], below 50 nM in assay [2] and below 500 nM in assay [3].
Regarding `COC(=O)N1c2ccc(-c3cnn(C4CCNCC4)c3)c(Oc3ccccc3)c2CC[C@@H]1C` [I-200, (S)-methyl 2-methyl-5-phenoxy-6-(1-(piperidin-4-yl)-1H-pyrazol-4-yl)-3,4-dihydroquinoline-1(2H)-carboxylate], the results for the IC50 in assay [1], in assay [2] and in assay [3] were 100 to 1000 nM, below 50 nM and below 500 nM, respectively.
Take `CC(=O)N1c2ccc(-c3cnn(C4CCNCC4)c3)c(Oc3ccccc3)c2CC[C@@H]1C` [I-201, (S)-1-(2-methyl-5-phenoxy-6-(1-(piperidin-4-yl)-1H-pyrazol-4-yl)-3,4-dihydroquinolin-1(2H)-yl)ethanone]: the IC50 was 100 to 1000 nM in assay [1], below 50 nM in assay [2] and below 500 nM in assay [3].
The corresponding values for `CC(=O)N1c2ccc(-c3cnn(C4CC4)c3)c(Oc3ccc(C(N)=O)cc3)c2CC[C@@H]1C` [I-209, (S)-4-(1-acetyl-6-(1-cyclopropyl-1H-pyrazol-4-yl)-2-methyl-1,2,3,4-tetrahydroquinolin-5-yloxy)benzamide] are 100 to 1000 nM, 50 to 500 nM and below 500 nM.
Turning to `CC(=O)N1c2ccc(-c3cnn(C4CC4)c3)c(Oc3ccccc3F)c2CC[C@@H]1C` [I-210, (S)-1-(6-(1-cyclopropyl-1H-pyrazol-4-yl)-5-(2-fluorophenoxy)-2-methyl-3,4-dihydroquinolin-1(2H)-yl)ethanone], the IC50 in assay [1] is 100 to 1000 nM; in assay [2] it was below 50 nM; in assay [3] it was below 500 nM.
As to `CC(=O)N1c2ccc(-c3cnn(C4CC4)c3)c(Oc3ccccc3Cl)c2CC[C@@H]1C` [I-211, (S)-1-(5-(2-chlorophenoxy)-6-(1-cyclopropyl-1H-pyrazol-4-yl)-2-methyl-3,4-dihydroquinolin-1(2H)-yl)ethanone], the IC50 was 100 to 1000 nM in assay [1], below 50 nM in assay [2] and below 500 nM in assay [3].
The corresponding values for `COC(=O)N1c2ccc(-c3cnn(C4CC4)c3)c(Oc3ccc(F)cc3)c2CC[C@@H]1C` [I-212, (S)-methyl 6-(1-cyclopropyl-1H-pyrazol-4-yl)-5-(4-fluorophenoxy)-2-methyl-3,4-dihydroquinoline-1(2H)-carboxylate] are 1000 to 10000 nM, 50 to 500 nM and below 500 nM.
The corresponding values for `COC(=O)N1c2ccc(-c3cnn(C4CC4)c3)c(Oc3ccc(C#N)cc3)c2CC[C@@H]1C` [I-213, (S)-methyl 5-(4-cyanophenoxy)-6-(1-cyclopropyl-1H-pyrazol-4-yl)-2-methyl-3,4-dihydroquinoline-1(2H)-carboxylate] are 100 to 1000 nM, 50 to 500 nM and below 500 nM.
The matching figures for `COC(=O)N1c2ccc(-c3cnn(C4CC4)c3)c(Oc3ccc(Cl)cc3)c2CC[C@@H]1C` [I-214, (S)-methyl 5-(4-chlorophenoxy)-6-(1-cyclopropyl-1H-pyrazol-4-yl)-2-methyl-3,4-dihydroquinoline-1(2H)-carboxylate]: 1000 to 10000 nM, below 50 nM and below 500 nM.
For `COC(=O)N1c2ccc(-c3cnn(C4CC4)c3)c(Oc3ccccc3Cl)c2CC[C@@H]1C` [I-215, (S)-methyl 5-(2-chlorophenoxy)-6-(1-cyclopropyl-1H-pyrazol-4-yl)-2-methyl-3,4-dihydroquinoline-1(2H)-carboxylate], the IC50 fell in the range of 1000 to 10000 nM in assay [1], 50 to 500 nM in assay [2] and 500 to 1000 nM in assay [3].
The matching figures for `COC(=O)N1c2ccc(-c3cnn(C4CC4)c3)c(Oc3ccc(C(N)=O)cc3)c2CC[C@@H]1C` [I-216, (S)-methyl 5-(4-carbamoylphenoxy)-6-(1-cyclopropyl-1H-pyrazol-4-yl)-2-methyl-3,4-dihydroquinoline-1(2H)-carboxylate]: 100 to 1000 nM, below 50 nM and below 500 nM.
In the case of `CC(=O)N1c2ccc(-c3cnn(C4CC4)c3)c(Oc3ccc(C#N)cc3)c2CC[C@@H]1C` [I-217, (S)-4-(1-acetyl-6-(1-cyclopropyl-1H-pyrazol-4-yl)-2-methyl-1,2,3,4-tetrahydroquinolin-5-yloxy)benzonitrile], the values for the IC50 in assay [1], in assay [2] and in assay [3] were 100 to 1000 nM, below 50 nM and below 500 nM, respectively.
With `C[C@H]1CCc2c(ccc(-c3ccn[nH]3)c2Oc2ccccc2)N1C(=O)C1CC1` [I-218, (S)-cyclopropyl(2-methyl-5-phenoxy-6-(1H-pyrazol-5-yl)-3,4-dihydroquinolin-1(2H)-yl)methanone], the IC50 in assay [1] is 1000 to 10000 nM; in assay [2], below 50 nM; in assay [3], below 500 nM.
The corresponding values for `C[C@H]1CCc2c(ccc(-c3cnn(C)c3)c2Oc2ccccc2)N1C(=O)C1CC1` [I-224, (S)-cyclopropyl(2-methyl-6-(1-methyl-1H-pyrazol-4-yl)-5-phenoxy-3,4-dihydroquinolin-1(2H)-yl)methanone] are 100 to 1000 nM, below 50 nM and below 500 nM.
The corresponding values for `CC(=O)N1c2ccc(-c3cnn(C4CC4)c3)c(Oc3ccc(F)cc3)c2CC[C@@H]1C` [I-225, (S)-1-(6-(1-cyclopropyl-1H-pyrazol-4-yl)-5-(4-fluorophenoxy)-2-methyl-3,4-dihydroquinolin-1(2H)-yl)ethanone] are 100 to 1000 nM, below 50 nM and below 500 nM.
Turning to `CC(=O)N1c2ccc(-c3cnn(C4CC4)c3)c(Oc3ccc(Cl)cc3)c2CC[C@@H]1C` [I-226, (S)-1-(5-(4-chlorophenoxy)-6-(1-cyclopropyl-1H-pyrazol-4-yl)-2-methyl-3,4-dihydroquinolin-1(2H)-yl)ethanone], the IC50 was 100 to 1000 nM in assay [1], 50 to 500 nM in assay [2] and below 500 nM in assay [3].
As to `COC(=O)N1c2ccc(-c3cnn(C4CCN(C)CC4)c3)c(Oc3ccc(Cl)cc3C#N)c2CC[C@@H]1C` [I-245, methyl (S)-5-(4-chloro-2-cyanophenoxy)-2-methyl-6-(1-(1-methylpiperidin-4-yl)-1H-pyrazol-4-yl)-3,4-dihydroquinoline-1(2H)-carboxylate], the IC50 in assay [1] is 100 to 1000 nM and ≥ 10000 nM; in assay [2], below 50 nM; in assay [3], below 500 nM.
Turning to `CC(=O)N1c2ccc(-c3cnn(C4CCN(C)CC4)c3)c(Oc3ccccc3C#N)c2CC[C@@H]1C` [I-246, (S)-2-((1-acetyl-2-methyl-6-(1-(1-methylpiperidin-4-yl)-1H-pyrazol-4-yl)-1,2,3,4-tetrahydroquinolin-5-yl)oxy)benzonitrile], the IC50 was 100 to 1000 nM in assay [1], below 50 nM in assay [2] and below 500 nM in assay [3].
The corresponding values for `COC(=O)N1c2ccc(-c3cnn(C4CCN(C)C4)c3)c(OC3CCC3)c2CC[C@@H]1C` (stereo partly drawn) [I-247, (2S)-methyl 5-cyclobutoxy-2-methyl-6-(1-(1-methylpyrrolidin-3-yl)-1H-pyrazol-4-yl)-3,4-dihydroquinoline-1 (211)-carboxylate] are 100 to 1000 nM, 50 to 500 nM and below 500 nM.
